Values after ≈ are worked out from the molar mass of the structure shown.
How the values were obtained:
Candida parapsilosis [1] = test: Fungicidal activity against Candida parapsilosis MTCC 1744 incubated for 24 hrs followed by transfer of microbial suspension to Sabouraud dextrose agar plates and measured after 24 hrs post transfer; type: functional; settings: Lodderomyces parapsilosis, MTCC 1744, 24 h
Candida albicans [2] = test: Antifungal activity against Candida albicans MTCC 3958 after 24 hrs by well diffusion method; type: functional; settings: MTCC 3958, 24 h
Candida albicans [3] = test: Fungicidal activity against Candida albicans MTCC 1637 incubated for 24 hrs followed by transfer of microbial suspension to Sabouraud dextrose agar plates and measured after 24 hrs post transfer; type: functional; settings: MTCC 1637, 24 h
Candida albicans [4] = test: Fungicidal activity against Candida albicans MTCC 7315 incubated for 24 hrs followed by transfer of microbial suspension to Sabouraud dextrose agar plates and measured after 24 hrs post transfer; type: functional; settings: MTCC 7315, 24 h
Nakaseomyces glabratus [5] = test: Fungicidal activity against Candida glabrata MTCC 3019 incubated for 24 hrs followed by transfer of microbial suspension to Sabouraud dextrose agar plates and measured after 24 hrs post transfer; type: functional; settings: MTCC 3019, 24 h
Candida albicans [6] = test: Antifungal activity against Candida albicans MTCC 3018 after 24 hrs by well diffusion method; type: functional; settings: MTCC 3018, 24 h
Candida albicans [7] = test: Fungicidal activity against Candida albicans MTCC 183 incubated for 24 hrs followed by transfer of microbial suspension to Sabouraud dextrose agar plates and measured after 24 hrs post transfer; type: functional; settings: MTCC 183, 24 h
Candida albicans [8] = test: Antifungal activity against Candida albicans MTCC 854 after 24 hrs by well diffusion method; type: functional; settings: MTCC 854, 24 h
Pichia kudriavzevii [9] = test: Antifungal activity against Candida krusei MTCC 3020 after 24 hrs by well diffusion method; type: functional; settings: MTCC 3020, 24 h
Candida albicans [10] = test: Fungicidal activity against Candida albicans MTCC 227 incubated for 24 hrs followed by transfer of microbial suspension to Sabouraud dextrose agar plates and measured after 24 hrs post transfer; type: functional; settings: MTCC 227, 24 h
Candida albicans [11] = test: Antifungal activity against Candida albicans MTCC 7315 after 24 hrs by well diffusion method; type: functional; settings: MTCC 7315, 24 h
Pichia sporocuriosa [12] = test: Fungicidal activity against Issatchenkia hanoiensis MTCC 4755 incubated for 24 hrs followed by transfer of microbial suspension to Sabouraud dextrose agar plates and measured after 24 hrs post transfer; type: functional; settings: MTCC 4755, 24 h
Candida albicans [13] = test: Antifungal activity against Candida albicans MTCC 183 after 24 hrs by well diffusion method; type: functional; settings: MTCC 183, 24 h
Candida albicans [14] = test: Antifungal activity against Candida albicans MTCC 227 after 24 hrs by well diffusion method; type: functional; settings: MTCC 227, 24 h
Candida albicans [15] = test: Fungicidal activity against Candida albicans MTCC 854 incubated for 24 hrs followed by transfer of microbial suspension to Sabouraud dextrose agar plates and measured after 24 hrs post transfer; type: functional; settings: MTCC 854, 24 h
Nakaseomyces glabratus [16] = test: Antifungal activity against Candida glabrata MTCC 3019 after 24 hrs by well diffusion method; type: functional; settings: MTCC 3019, 24 h
Candida parapsilosis [17] = test: Antifungal activity against Candida parapsilosis MTCC 1744 after 24 hrs by well diffusion method; type: functional; settings: MTCC 1744, 24 h
Pichia sporocuriosa [18] = test: Antifungal activity against Issatchenkia hanoiensis MTCC 4755 after 24 hrs by well diffusion method; type: functional; settings: MTCC 4755, 24 h
[Candida] aaseri [19] = Antifungal activity against Candida aaseri MTCC 1962 after 24 hrs by well diffusion method; type: functional; settings: Yamadazyma aaseri, MTCC 1962, 24 h
Candida albicans [20] = test: Fungicidal activity against Candida albicans MTCC 3958 incubated for 24 hrs followed by transfer of microbial suspension to Sabouraud dextrose agar plates and measured after 24 hrs post transfer; type: functional; settings: MTCC 3958, 24 h
Candida albicans [21] = test: Antifungal activity against Candida albicans MTCC 3017 after 24 hrs by well diffusion method; type: functional; settings: MTCC 3017, 24 h
Pichia kudriavzevii [22] = test: Fungicidal activity against Candida krusei MTCC 3020 incubated for 24 hrs followed by transfer of microbial suspension to Sabouraud dextrose agar plates and measured after 24 hrs post transfer; type: functional; settings: MTCC 3020, 24 h
Candida albicans [23] = test: Antifungal activity against Candida albicans MTCC 4748 after 24 hrs by well diffusion method; type: functional; settings: MTCC 4748, 24 h
Candida albicans [24] = test: Antifungal activity against Candida albicans MTCC 1637 after 24 hrs by well diffusion method; type: functional; settings: MTCC 1637, 24 h
Candida albicans [25] = test: Fungicidal activity against Candida albicans MTCC 3018 incubated for 24 hrs followed by transfer of microbial suspension to Sabouraud dextrose agar plates and measured after 24 hrs post transfer; type: functional; settings: MTCC 3018, 24 h
Candida albicans [26] = test: Fungicidal activity against Candida albicans MTCC 4748 incubated for 24 hrs followed by transfer of microbial suspension to Sabouraud dextrose agar plates and measured after 24 hrs post transfer; type: functional; settings: MTCC 4748, 24 h
Candida albicans [27] = test: Inhibition of ergosterol in Candida albicans MTCC 183 after 20 hrs by UV spectrophotometric method; type: functional, organism-based
[Candida] aaseri [28] = Fungicidal activity against Candida aaseri MTCC 1962 incubated for 24 hrs followed by transfer of microbial suspension to Sabouraud dextrose agar plates and measured after 24 hrs post transfer; type: functional; settings: Yamadazyma aaseri, MTCC 1962, 24 h
Candida albicans [29] = test: Fungicidal activity against Candida albicans MTCC 3017 incubated for 24 hrs followed by transfer of microbial suspension to Sabouraud dextrose agar plates and measured after 24 hrs post transfer; type: functional; settings: MTCC 3017, 24 h

`Clc1ccc(COC(Cn2ccnc2)c2ccc(Cl)cc2Cl)c(Cl)c1` (centres undefined) [MICONAZOLE] showed an MFC (Candida parapsilosis [1]) of 7.8 mg/L (≈ 18.7 µM), an MIC (Candida albicans [2]) of 7.8 mg/L (≈ 18.7 µM) and an MFC (Candida albicans [3]) of 7.8 mg/L (≈ 18.7 µM). The MFC (Candida albicans [4]) was 15.6 mg/L (≈ 37.5 µM), the MFC (Nakaseomyces glabratus [5]) was 7.8 mg/L (≈ 18.7 µM) and the MIC (Candida albicans [6]) was 7.8 mg/L (≈ 18.7 µM). The MFC (Candida albicans [7]) was 7.8 mg/L (≈ 18.7 µM), the MIC (Candida albicans [8]) was 7.8 mg/L (≈ 18.7 µM) and the MIC (Pichia kudriavzevii [9]) was 7.8 mg/L (≈ 18.7 µM). For the same molecule, the MFC (Candida albicans [10]) was 7.8 mg/L (≈ 18.7 µM), the MIC (Candida albicans [11]) was 7.8 mg/L (≈ 18.7 µM) and the MFC (Pichia sporocuriosa [12]) was 15.6 mg/L (≈ 37.5 µM). It also gave an MIC (Candida albicans [13]) of 7.8 mg/L (≈ 18.7 µM), an MIC (Candida albicans [14]) of 7.8 mg/L (≈ 18.7 µM) and an MFC (Candida albicans [15]) of 15.6 mg/L (≈ 37.5 µM). For the same molecule, the MIC (Nakaseomyces glabratus [16]) was 7.8 mg/L (≈ 18.7 µM), the MIC (Candida parapsilosis [17]) was 7.8 mg/L (≈ 18.7 µM) and the MIC (Pichia sporocuriosa [18]) was 7.8 mg/L (≈ 18.7 µM). For the same molecule, the MIC ([Candida] aaseri [19]) was 7.8 mg/L (≈ 18.7 µM), the MFC (Candida albicans [20]) was 7.8 mg/L (≈ 18.7 µM) and the MIC (Candida albicans [21]) was 7.8 mg/L (≈ 18.7 µM). For the same molecule, the MFC (Pichia kudriavzevii [22]) was 15.6 mg/L (≈ 37.5 µM), the MIC (Candida albicans [23]) was 7.8 mg/L (≈ 18.7 µM) and the MIC (Candida albicans [24]) was 7.8 mg/L (≈ 18.7 µM). For the same molecule, the MFC (Candida albicans [25]) was 15.6 mg/L (≈ 37.5 µM), the MFC (Candida albicans [26]) was 7.8 mg/L (≈ 18.7 µM) and the inhibition (Candida albicans [27]) was “Dose-dependent effect”. For the same molecule, the MFC ([Candida] aaseri [28]) was 15.6 mg/L (≈ 37.5 µM) and the MFC (Candida albicans [29]) was 7.8 mg/L (≈ 18.7 µM).

Source: ChEMBL document CHEMBL4219190, “Studies on synthesis of novel pyrido[2,3-d]pyrimidine derivatives, evaluation of their antimicrobial activity and molecular docking” (Bioorg Med Chem Lett, 2018)
